# Experiments:
# Format in all cases: cell-based
# [1] = test system: Pseudamonas aeruginosa; assay: Contact germicidal screen, Pseudamonas aeruginosa ATCC No. 14502
# Description: (§1) The organisms used in the contact germicidal screen are all maintained as stock cultures on nutrient agar […] 4° C. They are transferred and biochemically diagnosed monthly. The five organisms used are: The media used are: […] Overnight cultures of the test organisms are grown in tryptose phosphate broth. After 15-16 hours, the cultures are centrifuged at […] for 15 minutes, and the supernatant replaced with fresh warm (37° C.) media. After two hours of incubation, the absorbance of the culture at 650 nm is determined and diluted with nutrient broth to 1×10^7 colony forming units per ml (using a previous determined standard curve: colony forming units/ml vs. absorbance at 650). The diluted cultures are maintained at 4°-8° C. throughout the screen. The compounds are weighed into sterile 100 ml volumetric flasks, and immediately before screening dissolved in one of the following buffers: 0.1 M NaOAc pH 4.6 or 0.1 M NaH2 PO4 pH 7.0. If solubility poses a problem, 10-30% methanol is used to effect solution. Two denaturing agents are also tested: […] Horse Serum restored with 100 ml distilled water and 10% Trition×100. When used, 2.5 ml of the denaturing agent is mixed with 2.5 ml of double strength test solution thirty minutes before the bacterial suspension is added. The screen is initiated when 0.2 ml of the bacterial suspension is added to 5.0 ml of the test solution contained in a sterile 25 ml glass stoppered flask. At intervals of 0.5, 2.5, 5.0, 10.0 and 15.0 minutes, a loopful of the inoculated test solution is subcultured into 5 ml of sterile nutrient broth and mixed with a vortex, the high dilution serving to stop the action of the compound. All of the subculture tubes are incubated at 37° C. and checked for signs of growth by turbidity at 1, 3, 5 and 7 days. The earliest subculture time at which no growth is present is considered the endpoint and is recorded as the sterilization time. An aliquot of 0.2 ml of the diluted culture is transferred to 5 ml of buffer to simulate 0.2 ml in 5 ml of test solution. (a) Purity: A loopful of the inoculated buffer is streaked onto nutrient agar to check colony morphology and lack of contaminants. (b) Viability: A loopful of the inoculated buffer is subcultured to 5 ml of nutrient broth as in the screen and incubated at 37° C. for 24 hours. (c) Dilution of the Test Solution: A loopful of the test solution is transferred to a 5 ml tube of nutrient broth, and a loopful of the inoculated buffer is transferred to the same tube of broth. […] (d) Purity of Organisms in the Test Solution: After the 15 minute subculture, a loopful of the inoculated test solution is streaked onto nutrient agar to insure that contamination has not occurred during the screen. (e) lack of Bactericidal Activity of Buffers and Other Solvents: Before a buffer or other solvent is used as a diluent, it is screened against the five organisms to insure that the buffer or solvent has no antibacterial activity itself.
# [2] = test system: Microsporum canis; assay: Contact fungicidal screen, Microsporum canis; settings: 0.1M NaOAc pH 4.6
# [3] = test system: Aspergillus fumigatus; assay: Contact fungicidal screen, Aspergillus fumigatus; settings: 0.1M NaOAc pH 4.6
# [4] = test system: Staphylococcus aureus; assay: Contact germicidal screen, Staphylococcus aureus ATCC No. 6538
# Description: as §1
# [5] = 10.0+ PPM, 0.1M NaOAc pH 4.6, screened simultaneously with four other compounds
# [6] = 291.4 PPM, Triton X100 (10% solution):pH 4.6 buffer 1:1
# [7] = 291.4 PPM, horse serum:pH 4.6 buffer 1:1
# [8] = 300 PPM with 50% Horse Serum, 0.1M NaOAc pH 4.6
# [9] = 300 PPM with 50% Triton X100, 0.1M NaOAc pH 4.6
# [10] = 1000 PPM with 50% Horse Serum, 0.1M NaOAc pH 4.6
# [11] = 1024.4 PPM, 0.1M NaH2PO4 pH 7.0
# [12] = 1042.0 PPM, horse serum:pH 4.6 buffer 1:1
compound,measurement,setting,value
"CC(C)(COC(=O)CCCC(=O)O)N(Cl)Cl [(V), 2-dichloramino-2-methylpropyl-hemiglutarate]",Sterilization Time,[1]; [5],5.0 min
same,Sterilization Time,"[1]; 10.0 PPM, 0.1M NaH2PO4 pH 7.0",15 min
same,Sterilization Time (summary),"[1]; 10 PPM, 0.1M NaOAc pH 4.6",5.0 min
same,Sterilization Time,"[1]; 10.0 PPM, 0.1M NaOAc pH 4.6",10.0 min
same,Sterilization Time,"[1]; 99.1 PPM, 0.1M NaOAc pH 4.6",2.5 min
same,Sterilization Time (summary),"[1]; 100 PPM, 0.1M NaOAc pH 4.6",2.5 min
same,Sterilization Time,"[1]; 106.7 PPM, 0.1M NaH2PO4 pH 7.0",15 min
same,Sterilization Time,[1]; [6],2.5 min
same,Sterilization Time,[1]; [7],15 min
same,Sterilization Time (summary),[1]; [8],15 min
same,Sterilization Time (summary),[1]; [9],2.5 min
same,Sterilization Time,"[1]; 911.8 PPM, 0.1M NaOAc pH 4.6",0.5 min
same,Sterilization Time (summary),[1]; [10],10.0 min
same,Sterilization Time (summary),"[1]; 1000 PPM, 0.1M NaOAc pH 4.6",0.5 min
same,Sterilization Time,[1]; [11],15 min
same,Sterilization Time,[1]; [12],10.0 min
same,Sterilization Time,[2]; 10 PPM,15 min
same,Sterilization Time,[2]; 100 PPM,5.0 min
same,Sterilization Time,[2]; 1000 PPM,2.5 min
same,Sterilization Time,[3]; 10 PPM,15 min
same,Sterilization Time,[3]; 100 PPM,15 min
same,Sterilization Time,[3]; 1000 PPM,15 min
same,Sterilization Time,[4]; [5],10.0 min
same,Sterilization Time,"[4]; 10.0 PPM, 0.1M NaH2PO4 pH 7.0",15 min
same,Sterilization Time (summary),"[4]; 10 PPM, 0.1M NaOAc pH 4.6",10.0 min
same,Sterilization Time,"[4]; 10.0 PPM, 0.1M NaOAc pH 4.6",10.0 min
same,Sterilization Time,"[4]; 99.1 PPM, 0.1M NaOAc pH 4.6",2.5 min
same,Sterilization Time (summary),"[4]; 100 PPM, 0.1M NaOAc pH 4.6",2.5 min
same,Sterilization Time,"[4]; 106.7 PPM, 0.1M NaH2PO4 pH 7.0",15 min
same,Sterilization Time,[4]; [6],2.5 min
same,Sterilization Time,[4]; [7],15 min
same,Sterilization Time (summary),[4]; [8],15 min
same,Sterilization Time (summary),[4]; [9],2.5 min
same,Sterilization Time,"[4]; 911.8 PPM, 0.1M NaOAc pH 4.6",0.5 min
same,Sterilization Time (summary),[4]; [10],2.5 min
same,Sterilization Time (summary),"[4]; 1000 PPM, 0.1M NaOAc pH 4.6",0.5 min
same,Sterilization Time,[4]; [11],5.0 min
same,Sterilization Time,[4]; [12],2.5 min

# Reference: US4386103A, “Dichloroamino acid derivatives useful as potent germicidal and fungicidal agents” (Merck & Co., Inc., priority 1981, dated 1983)
